Data published in PubChem BioAssay (NCI).
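In this assay, cells in 96-well plates receive the compound at five concentrations for 48 hours. Endpoints are linearly interpolated between the surrounding concentrations. At the GI50, growth is halved. At the TGI there is no net growth.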

Columns and labels:
Assay in all cases: NCI-60 cell line screen, 48 h
DMS 114 small cell lung = test system: DMS 114 small cell lung
XF 498 CNS = test system: XF 498 CNS
DMS 273 small cell lung = test system: DMS 273 small cell lung
MDA-MB-231 breast = test system: MDA-MB-231 breast
MDA-N = test system: MDA-N
RXF-631 renal = test system: RXF-631 renal

| Structure (SMILES) | TGI (DMS 114 small cell lung) | TGI (XF 498 CNS) | TGI (DMS 273 small cell lung) | TGI (MDA-MB-231 breast) | TGI (MDA-N) | TGI (RXF-631 renal) | GI50 (MDA-MB-231 breast) |
| --- | --- | --- | --- | --- | --- | --- | --- |
| C(=NCCN=Cc1cccc2ccccc12)c1cccc2ccccc12 | > 100 µM | > 100 µM | > 100 µM |  |  |  |  |
| O=C(O)CSc1nnc2c3ccccc3c3ccccc3c2n1 |  |  |  | > 100 µM | > 100 µM |  |  |
| CCCCCCC(=O)CC(=O)C(=O)Nc1ccccc1C | > 100 µM | > 100 µM | > 100 µM |  |  | > 100 µM |  |
| Nc1ncnc2c1ncn2COC/C=C/I | > 100 µM | > 100 µM | > 100 µM |  |  | > 100 µM |  |
| CCCCCCCCCCCCCCCC(N)c1ccccc1 (configuration not stated) |  |  |  | 2.95 µM |  |  | 1.35 µM |
| COc1cc2c3c(n(CCCN4CCN(CCO)CC4)c(=O)c2cc1OC)-c1cc2c(cc1C3=O)OCO2 |  |  |  | 18.3 µM |  |  | 4.97 µM |
| O=S1Cc2ccccc2CSS1 (configuration not stated) | 34.6 µM | 34 µM | 24.1 µM |  |  | 48.5 µM |  |
| NCCNc1ncnc2ccc(Cl)cc12 |  |  |  | > 100 µM | > 100 µM |  |  |
| Nc1ncnc2c1ncn2C1OC(C(=O)OCCO)C(O)C1O (configuration not stated) |  |  |  | > 100 µM | > 100 µM |  |  |
| COC(=O)C1=C(O)C(C(=O)OC)[C@@]2(O)[C@@H](C(=O)OC)C(c3ccccc3Cl)C[C@@H]1[C@@H]2C(=O)OC (some centres not stated) |  |  |  | 20.7 µM |  |  | 6.56 µM |
| CC1SC(c2cccc(Cl)c2)N(NC(=O)C(O)c2ccccc2)C1=O (configuration not stated) |  |  |  | > 100 µM |  |  | > 100 µM |
| CC1CC2(C)CC(=O)C1C1C(=O)N(CCN3CCOCC3)C(=O)C12 (configuration not stated) |  |  |  | > 100 µM |  |  | > 100 µM |
| CC(=O)Nc1ccc(OCC(O)CO)cc1 (configuration not stated) |  | > 100 µM | > 100 µM |  |  |  |  |
| O=C(Nc1ccc(N2CCNCC2)cn1)c1[nH]ncc1Nc1ncnc2sc3c(c12)CCC3 |  |  |  | 3.28 µM |  |  | 1.69 µM |
| COc1ccc([Se]c2ccc(OC)cc2)cc1 | > 100 µM | > 100 µM | > 100 µM |  |  |  |  |
| CN1C(=O)C(C)(C)Oc2c(-c3cn(C)c(=O)c4[nH]ccc34)cc(S(C)(=O)=O)cc21 |  |  |  | > 100 µM |  |  | 0.664 µM |
| C=C1CC(CC(=O)C(C)CC2CC(=C)C(=O)O2)OC1=O (configuration not stated) | 39 µM | 43.3 µM | 57.5 µM |  |  | > 100 µM |  |
| CC1=C(C(=O)NCc2ccccc2)C(c2ccccc2O)C(C(=O)NCc2ccccc2)=C(C)N1 | 35.7 µM | 31.2 µM | 31.2 µM |  |  |  |  |
